Data as given in US7300770B2, “Detection of microbe contamination on elastomeric articles” (Kimberly-Clark Worldwide, Inc., priority 2004, dated 2007).
Values joined by “and” are separate entries in the source; they are usually repeats but may differ in a detail not shown here. Equal entries are not always repeated.

What was measured:
[1] = tested on: S. aureus; experiment: Titration of serially diluted S. aureus suspensions on paper towel with dye
Text: 100 microliters of serially diluted S. aureus bacterial suspensions were placed onto a SCOTT® paper towel. Drops (10 microliters) of the Reichardt's dye in acetonitrile solution (40 milligrams/10 milliliters) were then pipetted onto each spot where the bacteria was placed. The dye solution changed color in less than 1 second. […] This was repeated on each spot corresponding to where different concentrations of bacteria were placed.

[2] = tested on: S. aureus; experiment: Delta E of dye-coated paper and label substrates versus bacteria concentration
Text: (§1) More specifically, indicator strips coated with Reichardt's dye were exposed with decreasing amounts of the bacteria aliquots. A hand-held spectrophotometer was used to after application of each aliquot to determine “Delta E” value (calculated using L*, A*, and B* values) for each CFU/mL concentration. The results are set forth below in Table 4 (for paper) and Table 5 (for label). From the above, standard detection curves were generated as shown in FIGS. 5-7 for S. aureus, P. aeruginosa, and E. coli, respectively. As shown, each type of bacteria changed the color of the dye-treated substrate in a slightly different way, creating a unique standard curve. Thereafter, drops of unknown bacteria concentrations were placed on the stickers and a spectrophotometer was used to measure the “Delta E” of the resulting color. The numerical values obtained for each unknown sample set forth below in Tables 6-7. […] Although a few of the results were not completely accurate, the present inventors believe that improving the uniformity of the coating would further enhance detection accuracy.

[3] = tested on: E. coli; experiment: as above; details: for Delta E of unknown sample / log CFU/ml (estimated): E. coli
Text: as §1

[4] = tested on: P. aeruginosa; experiment: as above
Text: as §1

[5] = tested on: Influenza A; experiment: Virus detection on Reichardt's dye-coated stickers; details: undiluted virus, 50 microliters, 3 minutes
[6] = tested on: S. aureus; experiment: Color change of Reichardt's dye-treated elastomeric gloves on contact with S. aureus; details: natural rubber latex glove; 160 mg dye/10 mL acetonitrile; 10^7 CFU/mL S. aureus
Text: Specifically, a solution of Reichardt's dye (160 milligrams per 10 milliliters of acetonitrile) was brushed onto a piece of a natural rubber latex glove (commercially available from Kimberly-Clark Corp.). A 100-microliter drop of 10^7 CFU/mL S. aureus was then applied to the surface of the glove and gently spread using a disposable pipette. Thereafter, a finger of a second natural rubber latex glove (commercially available from Kimberly-Clark Corp.) was dipped into a solution of Reichardt's dye (160 milligrams per 10 milliliters of acetonitrile). After drying, the fingers of the second glove were used to spread bacteria from the S. aureus droplet placed onto the piece of latex glove to another area on the latex piece.

[7] = tested on: vaginal fluid samples; experiment: Dye-coated stickers tested with vaginal fluid samples
Description: A sticker of each concentration was tested with normal, BV positive/pH positive, and BV negative/pH positive vaginal fluid samples. […] The three states of color change were easily distinguishable.

[8] = tested on: aged chicken juice (bacteria); experiment: Dye spray on hot plate: aged chicken juice versus canned chicken broth; details: 160 mg/10 mL isopropanol spray
Text: Canned chicken broth was utilized as a control that would contain chicken derived products such as lipids, protein, etc., to check for potential interferences from these naturally occurring materials. Freshly opened Swanson® Chicken Broth was pipette onto a hot plate surface and wiped dry with a SCOTT® towel. Juice from raw chicken that had been stored at room temperature for several days was also pipetted onto the hot plate and wiped dry as a positive control. […] Thus, in the case of chicken, the presence of microbes was clearly responsible for triggering the change in color, and not some other component, such as chicken fat or proteins.

[9] = tested on: S. aureus; experiment: Dye coatings from different solvents on towels exposed to S. aureus
Description: The behavior of Reichardt's dye coatings made using various different solvents was evaluated. Solutions of Reichardt's dye in acetonitrile, isopropanol, and xylenes were prepared and the solutions were used to coat SCOTT® kitchen rolls towels and allowed to air-dry. […] Though the color of the dye was less intense than that seen with acetonitrile, the color change due to microbial contamination was still readily observed.

[10] = Longest wavelength peak absorption of dyes in three solvents (UV-Visible); format: physicochemical
Text: Reichardt's dye was used without further purification. […] Acetone, methanol, and acetonitrile solvents (HPLC grade) were obtained from Sigma-Aldrich Chemical Co., Inc. A Shimadzu UV-1601 UV-Visible Spectrophotometer (Shimadzu Corporation) was used to measure the longest wavelength peak absorption of the dyes in the range of 400 to 800 nanometers, dissolved in three different solvents, contained in quartz curvettes. The following table contains the results of the testing with the solvents on the left side and dyes across the top.

[11] = paper substrate, S. aureus, log CFU/ml (actual) 5
[12] = label substrate, log CFU/ml (actual) 7
[13] = paper substrate, log CFU/ml (actual) 3
[14] = paper substrate, P. aeruginosa, log CFU/ml (actual) 3

## [O-]c1c(-c2ccccc2)cc(-[n+]2c(-c3ccccc3)cc(-c3ccccc3)cc2-c2ccccc2)cc1-c1ccccc1 [Reichardt's dye, 4-(2,4,6-triphenylpyridinium-1-yl)-2,6-diphenylphenolate]
[1]; 10 microliter drops, 40 mg/10 mL acetonitrile, on S. aureus spots
  Time for dye solution to change color: less than 1 second
[1]; drops added until color remained steady
  Correlation of titration with level of bacterial contamination: good correlation
[2]; label substrate, S. aureus, log CFU/ml (actual) 6
  Delta E of unknown sample: 6.869 and 4.228
[2]; label substrate, log CFU/ml 3
  Delta E (S. aureus): 5.414
[2]; label substrate, log CFU/ml 4
  Delta E (S. aureus): 4.791
[2]; label substrate, log CFU/ml 5
  Delta E (S. aureus): 6.92
[2]; label substrate, log CFU/ml 6
  Delta E (S. aureus): 6.908
[2]; label substrate, log CFU/ml 7
  Delta E (S. aureus): 18.62
[2]; [11]
  Delta E of unknown sample: 3.161
  log CFU/ml (estimated): 5
[2]; paper substrate, log CFU/ml 3
  Delta E (S. aureus): 1.867
[2]; paper substrate, log CFU/ml 4
  Delta E (S. aureus): 2.074
[2]; paper substrate, log CFU/ml 5
  Delta E (S. aureus): 2.447
[2]; paper substrate, log CFU/ml 6
  Delta E (S. aureus): 3.876
[2]; paper substrate, log CFU/ml 7
  Delta E (S. aureus): 11.73
[3]; [12]
  Delta E of unknown sample: 7.1157
  log CFU/ml (estimated): 7
[3]; label substrate, log CFU/ml 3
  Delta E (E. coli): 5.13
[3]; label substrate, log CFU/ml 4
  Delta E (E. coli): 5.201
[3]; label substrate, log CFU/ml 5
  Delta E (E. coli): 4.644
[3]; label substrate, log CFU/ml 6
  Delta E (E. coli): 4.867
[3]; label substrate, log CFU/ml 7
  Delta E (E. coli): 7.779
[3]; [13]
  Delta E of unknown sample: 1.3605
  log CFU/ml (estimated): 5
[3]; paper substrate, log CFU/ml 3
  Delta E (E. coli): 3.8228
[3]; paper substrate, log CFU/ml 4
  Delta E (E. coli): 3.0123
[3]; paper substrate, log CFU/ml 5
  Delta E (E. coli): 2.3320
[3]; paper substrate, log CFU/ml 6
  Delta E (E. coli): 3.2574
[3]; paper substrate, log CFU/ml 7
  Delta E (E. coli): 4.3483
[3]; paper substrate, log CFU/ml 8
  Delta E (E. coli): 9.3642
[4]; label substrate, P. aeruginosa, log CFU/ml (actual) 6
  Delta E of unknown sample: 4.4954 and 4.1002
[4]; label substrate, log CFU/ml 3
  Delta E (P. aeruginosa): 3.8787
[4]; label substrate, log CFU/ml 4
  Delta E (P. aeruginosa): 4.9473
[4]; label substrate, log CFU/ml 5
  Delta E (P. aeruginosa): 4.6519
[4]; label substrate, log CFU/ml 6
  Delta E (P. aeruginosa): 4.2419
[4]; label substrate, log CFU/ml 7
  Delta E (P. aeruginosa): 6.9567
[4]; [14]
  Delta E of unknown sample: 1.0267
  log CFU/ml (estimated): 5
[4]; paper substrate, log CFU/ml 3
  Delta E (P. aeruginosa): 1.7900
[4]; paper substrate, log CFU/ml 4
  Delta E (P. aeruginosa): 2.2358
[4]; paper substrate, log CFU/ml 5
  Delta E (P. aeruginosa): 1.7151
[4]; paper substrate, log CFU/ml 6
  Delta E (P. aeruginosa): 1.3193
[4]; paper substrate, log CFU/ml 7
  Delta E (P. aeruginosa): 4.9569
[5]
  De-colorization of sticker: less than that observed for the other viruses
[6]
  Color change of glove piece and glove finger: immediately changed
[7]; BV negative/pH positive sample
  Color change of dye-coated sticker: only faintly changed the color
[7]; BV positive/pH positive sample
  Color change of dye-coated sticker: next sharpest color change
[7]; normal vaginal fluid
  Color change of dye-coated sticker: sharpest color change
[8]
  Color change on hot plate surface: only the side containing the aged chicken juice (and thus bacteria) changed color
[9]; acetonitrile solution-based coating
  Color change of coating where bacterial suspension was placed: rapid color change
[9]; isopropanol and xylenes coatings
  Color change of coating where bacterial suspension was placed: No visible color change
[10]; Acetone
  Color in solvent: (Bluish-green)
  Longest wavelength peak absorption: 674 nm
[10]; Acetonitrile
  Color in solvent: (Blue)
  Longest wavelength peak absorption: 623 nm
[10]; Methanol
  Color in solvent: (red)
  Longest wavelength peak absorption: 509 nm
